Data reported in patent US9512152B2, “Phospholipid compound containing unsaturated fatty acid derivative having cyclopropane ring” (NISHIZAKI BIOINFORMATION RESEARCH INSTITUTE, priority 2013, dated 2016).

Key:
Human PTP1B = molecular target: T1, Human PTP1B (Homo sapiens, UniProt P18031); assay: Assay of PTP1B activity under cell-free conditions (p-NPP substrate); format: biochemical; settings: FIG. 2
T1 construct: made in house; host or cells: E. coli BL21(DE3)
T1 sequence (P18031 1-435): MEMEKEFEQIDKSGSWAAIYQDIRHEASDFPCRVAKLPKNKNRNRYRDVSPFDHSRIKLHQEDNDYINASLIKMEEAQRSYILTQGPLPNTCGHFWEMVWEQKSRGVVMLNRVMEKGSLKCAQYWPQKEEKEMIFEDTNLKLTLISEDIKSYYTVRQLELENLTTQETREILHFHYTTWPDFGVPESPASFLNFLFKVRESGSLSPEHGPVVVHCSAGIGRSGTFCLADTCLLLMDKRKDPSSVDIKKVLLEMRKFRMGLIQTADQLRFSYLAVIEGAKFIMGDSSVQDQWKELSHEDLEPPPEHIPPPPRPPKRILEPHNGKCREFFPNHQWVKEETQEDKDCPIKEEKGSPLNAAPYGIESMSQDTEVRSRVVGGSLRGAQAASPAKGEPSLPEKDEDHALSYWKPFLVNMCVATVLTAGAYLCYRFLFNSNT
Description: Protein tyrosine phosphatase was measured under cell-free conditions by a method partially modified from the methods described in previous reports (Baba Y, et al. J Am Chem Soc 2003; 125; 9740-9749; Rice R L, et al. Biochemistry 1997; 36: 15965-15974). Human PTP1B was cloned to a pGEX-6P-3 vector having a GST tag at the NH2 terminal, and expressed in competent E. coli BL21(DE3) suitable for transformation and protein expression. GST fusion PTP1B was affinity-purified using glutathione sepharose 4B (GE Healthcare Bio-Science KK, Tokyo, Japan). It was reacted with p-nitrophenylphosphate (p-NPP) (Sigma, St. Louis, Mo., USA) as a substrate and PTP1B activity was measured. The enzyme was pre-incubated in a reaction medium [50 mM HEPES, 1 mM EDTA, 50 mM NaCl, 1 mM dithiothreitol, pH 7.2] at 37° C. for 30 min in the presence or absence of diDCP-LA-PE and with or without addition of Na3VO4 which is a PTP1B inhibitor. Then, p-NPP (10 mM) was added to the reaction medium, and the mixture was incubated for 60 min. The reaction was discontinued by the addition of 0.1N NaOH. Dephosphorylated p-NPP, i.e., p-NP, was quantified at an absorbance of 405 nm by using SpectraMax PLUS384 (Molecular Devices, Sunnyvale, Calif., USA).

[1] = system: 3T3L1-GLUT4myc adipocytes having a knocked-down insulin receptor; assay: GLUT4 trafficking in adipocytes with knocked-down insulin receptor; format: cell-based; settings: 1 μM, 20 min, absence of insulin, FIG. 12
Description: 3T3L1-GLUT4myc adipocytes were incubated in Krebs-Ringer-HEPES buffer [136 mM NaCl, 4.7 mM KCl, 1.25 mM CaCl2, 1.25 mM MgSO4 and 20 mM HEPES, pH 7.5] containing 0.2% (w/v) bovine serum albumin and added with 10 mM glucose at 37° C. for 1 hr. The cells were incubated in the presence or absence of insulin, phospholipid or a derivative thereof for 20 min. Then, the cells were homogenized by sonication in an ice-cooled mitochondria buffer containing 1% (v/v) protease inhibitor cocktail [210 mM mannitol, 70 mM sucrose, and 1 mM ethylenediaminetetraacetic acid (EDTA), 10 mM HEPES, pH 7.5]. Sequentially, the homogenate was centrifuged at 4° C. for 5 min at 3,000 rpm. The supernatant was further centrifuged at 4° C. for 15 min at 11,000 rpm. The recovered supernatant was ultracentrifuged at 4° C. for 60 min at 100,000 g, and separated into a cytoplasm fraction and a cellular membrane fraction. […] The protein concentration of each fraction was measured using BCA protein assay kit (Thermo Fisher Scientific, Waltham, Mass., USA). […] The immunoreactivity was detected using ECL kit (Invitrogen), and visualized using a chemical luminescence detection system (chemiluminescence detection system; GE Healthcare, Piscataway, N.J., USA). The signal density was measured using an image analysis software (Image Gauge software; GE Healthcare). […]

For `CCCCCC1CC1CC1CC1CCCCCCCC(=O)OC[C@H](COP(=O)(O)OCCN)OC(=O)CCCCCCCC1CC1CC1CC1CCCCC` (some centres unmarked) [diDCP-LA-PE, 1,2-o-bis-[8-{2-(2-pentyl-cyclopropylmethyl)-cyclopropyl}-octanoyl]-sn-glycero-3-phosphatidylethanolamine], the “PTP1B inhibition (phosphatase activity, dephosphorylated p-NPP)” value (Human PTP1B) was “inhibits PTP1B in a concentration-dependent manner” and the “Transfer of GLUT4 to cellular membrane, insulin receptor knock-down” value [1] was “can promote transfer of GLUT4 to a cellular membrane in an insulin receptor independent manner”.
